Here are results for three compounds from patent US8049013B2, “5- [4-(azetidin-3-yloxy)-phenyl]-2-phenyl-5H-thiazolo[5,4-C] pyridin-4-one derivatives and their use as MCH receptor antagonists” (Eli Lilly and Company, priority 2006, dated 2011).

Assay [1] has as its target T1, human MCHR1 (Homo sapiens, UniProt Q99705).
T1 construct: expressed in transfected cells; host or cells: AV-12 cells (clone 43), membranes
Put plainly: Functional GTPγ35S binding assay: inhibition of MCH-stimulated GTPγ35S binding to membranes of AV-12 cells expressing human MCHR1. The assay is classed as biochemical. The note with it: Kb from IC50 by modified Cheng-Prusoff (Leff and Dougal). The source says:
(§1) One of skill in the art is able to perform both the ^125I-MCH binding and functional GTPγ^35S binding assays using the procedures herein or procedures disclosed in the art. For binding assay, see for example, Macdonald, D., et al., 2000. Molecular characterization of the melanin-concentrating hormone/receptor complex: identification of critical residues involved in binding and activation. Mol Pharmacol 58, 217-225. For GTPgammaS functional assay, see for example, Gao, X., et al., 2004. Europium-labeled melanin-concentrating hormone analogues: ligands for measuring binding to melanin-concentrating hormone receptors 1 and 2. Anal Biochem 328, 187-195.
Functional antagonism of MCH activity is assessed by measuring the ability of a test compound to inhibit MCH-stimulated binding of GTPγ^35S to membranes isolated from AV-12 cells expressing the human MCHR1 using a scintillation proximity assay. […] After verifying competitive antagonism by Schild analysis, Kb values are calculated from the IC50 values for each antagonist and the EC50 for MCH (determined independently) using a modification of the Cheng-Prusoff approximation as described by Leff and Dougal (Trends Pharmacol. Sci. (1993) 14: 110-112). […]

Assay [2] can be described thus: In vivo efficacy in diet-induced obese male Long-Evans rats, oral gavage once a day for 3 days. The note with it: 10 mg/Kg oral. As for the experimental part:
Animals are housed individually in a temperature regulated room (24° C.) with a reverse 12 hour light/dark cycle (dark 10:00/22:00). Water and food (Teklad 95217, Harlan, Wis.) were available ad libitum. Compounds are administered orally in a vehicle that consists of 10% acacia and 0.15% saccharin in water once a day before onset of the dark period for 3 days. Food intake and body weight are measured daily for the 3 day period. The compound of Example 29 produces an average body weight reduction of about 7 grams at a dose of 10 mg/Kg when compared to vehicle control.

Assay [3] deals with T1, human MCHR1. Put plainly: 125I-MCH competitive binding assay (scintillation proximity), membranes of AV-12 cells transfected with human MCHR1. The note with it: Ki calculated from IC50 by Cheng-Prusoff, average.
From the text: as §1
Binding of compounds to MCHR1 is assessed in a competitive binding assay employing ^125I-MCH, compound of the invention, and clone 43 membranes using scintillation proximity techniques. IC50 values (defined as the concentration of test compound required to reduce specific binding of ^125I-MCH by 50%) are determined by fitting the concentration-response data to a 4-parameter model (max response, min response, Hill coefficient, IC50) using a spreadsheet.

A word on the Ki: it is the equilibrium dissociation constant of an inhibitor or competing ligand from its target.

Counter-ions that a name gives are not always drawn.

T1 sequence (Q99705 whole entry): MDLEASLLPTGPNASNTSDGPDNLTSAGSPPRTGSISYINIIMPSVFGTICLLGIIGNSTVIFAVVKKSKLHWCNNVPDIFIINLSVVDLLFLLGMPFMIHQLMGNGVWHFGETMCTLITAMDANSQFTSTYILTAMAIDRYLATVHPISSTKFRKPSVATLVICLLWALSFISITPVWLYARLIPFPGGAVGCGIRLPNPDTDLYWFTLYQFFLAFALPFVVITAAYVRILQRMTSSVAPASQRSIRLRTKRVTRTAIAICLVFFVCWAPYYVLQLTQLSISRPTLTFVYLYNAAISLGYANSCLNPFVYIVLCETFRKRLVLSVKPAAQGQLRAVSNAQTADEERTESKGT

Turning to `COc1cc(N2CCc3nc(-c4ccc(Cl)cc4)sc3C2=O)ccc1OC1CN(C(C)C)C1` [Example 28, 2-(4-Chloro-phenyl)-5-[4-(1-isopropyl-azetidin-3-yloxy)-3-methoxy-phenyl]-6,7-dihydro-5H-thiazolo[5,4-c]pyridin-4-one, hydrochloride salt], the Kb on human MCHR1 [1] is about 6 nM.
For the compound `COc1cc(N2CCc3nc(-c4ccc(Cl)cc4)sc3C2=O)ccc1OC1CN(C2CCC2)C1.Cl` [Example 29, 2-(4-Chloro-phenyl)-5-[4-(l-cyclobutyl-azetidin-3-yloxy)-3-methoxy-phenyl]-6,7-dihydro-5H-thiazolo[5,4-c]pyridin-4-one, hydrochloride salt], the “average body weight reduction when compared to vehicle control” value in assay [2] was “about 7 grams”.
As to `COc1cc(N2CCc3nc(-c4ccc(Cl)cc4)sc3C2=O)ccc1OC1CN(C2CC2)C1` [Example 37, 2-(4-Chloro-phenyl)-5-[4-(1-cyclopropyl-azetidin-3-yloxy)-3-methoxy-phenyl]-6,7-dihydro-5H-thiazolo[5,4-c]pyridin-4-one, hydrochloride salt], the Ki at human MCHR1 [3] is about 4 nM.
